System: 843126-344-R-J1-PDC complex spheroid viability
Test: Anticancer human tumor 843126-344-R-J1-PDC patient-derived melanoma cell line growth inhibition [POLQ]
Settings: for IC50: curve of first compound; for viability, T/C: stronger effect = lower value
Procedure, shortened: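 Patient-derived tumour cells were co-cultured with HUVEC and mesenchymal stem cells as multicellular spheroids at 37 °C. They were treated with POLQ inhibitors (novobiocin, ART-558, RP6685) alone or combined with other agents. Top concentrations were at or near clinical Cmax (otherwise 10 microM; SN-38 at 1 microM), decreasing in half-log steps.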

[1] = second compound 0.0316 µM, first compound 0.0316 µM
[2] = second compound 0.0316 µM, first compound 0.1 µM
[3] = second compound 0.1 µM, first compound 0.0316 µM
[4] = second compound 0.1 µM, first compound 0.1 µM
[5] = second compound 0.316 µM, first compound 0.0316 µM
[6] = second compound 0.316 µM, first compound 0.1 µM
[7] = second compound 1 µM, first compound 0.0316 µM
[8] = second compound 1 µM, first compound 0.1 µM
[9] = second compound 3.16 µM, first compound 0.0316 µM
[10] = second compound 3.16 µM, first compound 0.1 µM
[11] = second compound 10 µM, first compound 0.0316 µM
[12] = second compound 10 µM, first compound 0.1 µM
[13] = second compound 0.0316 µM, first compound 0.316 µM
[14] = second compound 0.0316 µM, first compound 1 µM
[15] = second compound 0.0316 µM, first compound 3.16 µM
[16] = second compound 0.0316 µM, first compound 10 µM
[17] = second compound 0.1 µM, first compound 0.316 µM
[18] = second compound 0.1 µM, first compound 1 µM
[19] = second compound 0.1 µM, first compound 3.16 µM
[20] = second compound 0.1 µM, first compound 10 µM
[21] = second compound 0.316 µM, first compound 0.316 µM
[22] = second compound 0.316 µM, first compound 1 µM
[23] = second compound 0.316 µM, first compound 3.16 µM
[24] = second compound 0.316 µM, first compound 10 µM
[25] = second compound 1 µM, first compound 0.316 µM
[26] = second compound 1 µM, first compound 1 µM
[27] = second compound 1 µM, first compound 3.16 µM
[28] = second compound 1 µM, first compound 10 µM
[29] = second compound 3.16 µM, first compound 0.316 µM
[30] = second compound 3.16 µM, first compound 1 µM
[31] = second compound 3.16 µM, first compound 3.16 µM
[32] = second compound 3.16 µM, first compound 10 µM
[33] = second compound 10 µM, first compound 0.316 µM
[34] = second compound 10 µM, first compound 1 µM
[35] = second compound 10 µM, first compound 3.16 µM
[36] = second compound 10 µM, first compound 10 µM
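For viability, T/C in this document: spheroids exposed to drugs for seven days before readout.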

CC[C@@]1(O)C(=O)OCc2c1cc1n(c2=O)Cc2cc3c(CN(C)C)c(O)ccc3nc2-1 + Nc1ccc(C#CCN(C(=O)Cc2ncc(C(F)(F)F)cc2C(F)(F)F)c2ccc(F)cc2)nn1
IC50 (second compound 0.0316 µM): > 0.1 µM
IC50 (second compound 0.1 µM): > 0.1 µM
IC50 (second compound 0.316 µM): > 0.1 µM
IC50 (second compound 1 µM): > 0.1 µM
IC50 (second compound 3.16 µM): > 0.1 µM
IC50 (second compound 10 µM): > 0.1 µM
viability, T/C (second compound 0.0316 µM, first compound 0.000316 µM): 85%
viability, T/C (second compound 0.0316 µM, first compound 0.001 µM): 94%
viability, T/C (second compound 0.0316 µM, first compound 0.00316 µM): 82.8%
viability, T/C (second compound 0.0316 µM, first compound 0.01 µM): 100%
viability, T/C [1]: 71.1%
viability, T/C [2]: 50.2%
viability, T/C (second compound 0.1 µM, first compound 0.000316 µM): 103%
viability, T/C (second compound 0.1 µM, first compound 0.001 µM): 85.8%
viability, T/C (second compound 0.1 µM, first compound 0.00316 µM): 91%
viability, T/C (second compound 0.1 µM, first compound 0.01 µM): 87.7%
viability, T/C [3]: 67.2%
viability, T/C [4]: 55.8%
viability, T/C (second compound 0.316 µM, first compound 0.000316 µM): 96.4%
viability, T/C (second compound 0.316 µM, first compound 0.001 µM): 81.4%
viability, T/C (second compound 0.316 µM, first compound 0.00316 µM): 90.5%
viability, T/C (second compound 0.316 µM, first compound 0.01 µM): 91.7%
viability, T/C [5]: 72%
viability, T/C [6]: 61.1%
viability, T/C (second compound 1 µM, first compound 0.000316 µM): 85.1%
viability, T/C (second compound 1 µM, first compound 0.001 µM): 93.3%
viability, T/C (second compound 1 µM, first compound 0.00316 µM): 102%
viability, T/C (second compound 1 µM, first compound 0.01 µM): 93.9%
viability, T/C [7]: 63.8%
viability, T/C [8]: 49.2%
viability, T/C (second compound 3.16 µM, first compound 0.000316 µM): 93.6%
viability, T/C (second compound 3.16 µM, first compound 0.001 µM): 98.2%
viability, T/C (second compound 3.16 µM, first compound 0.00316 µM): 95.3%
viability, T/C (second compound 3.16 µM, first compound 0.01 µM): 106%
viability, T/C [9]: 64.9%
viability, T/C [10]: 54.7%
viability, T/C (second compound 10 µM, first compound 0.000316 µM): 85.9%
viability, T/C (second compound 10 µM, first compound 0.001 µM): 87.3%
viability, T/C (second compound 10 µM, first compound 0.00316 µM): 87.8%
viability, T/C (second compound 10 µM, first compound 0.01 µM): 92.9%
viability, T/C [11]: 69.2%
viability, T/C [12]: 50%

CC(C)n1c(=O)n(C)c2cnc3cc(F)c(-c4ccc(OCCCN5CCCCC5)nc4)cc3c21 + COC1C(OC(N)=O)C(O)C(Oc2ccc3c(O)c(NC(=O)c4ccc(O)c(CC=C(C)C)c4)c(=O)oc3c2C)OC1(C)C
IC50 (second compound 0.0316 µM): > 10 µM
IC50 (second compound 0.1 µM): > 10 µM
IC50 (second compound 0.316 µM): > 10 µM
IC50 (second compound 1 µM): > 10 µM
IC50 (second compound 3.16 µM): > 10 µM
IC50 (second compound 10 µM): > 10 µM
viability, T/C [1]: 79.6%
viability, T/C [2]: 85.9%
viability, T/C [13]: 94.7%
viability, T/C [14]: 86.4%
viability, T/C [15]: 77.2%
viability, T/C [16]: 70.5%
viability, T/C [3]: 81.1%
viability, T/C [4]: 69.3%
viability, T/C [17]: 85%
viability, T/C [18]: 94.8%
viability, T/C [19]: 74.8%
viability, T/C [20]: 76.1%
viability, T/C [5]: 90.8%
viability, T/C [6]: 76.2%
viability, T/C [21]: 79.8%
viability, T/C [22]: 91.1%
viability, T/C [23]: 70.3%
viability, T/C [24]: 67.8%
viability, T/C [7]: 95.5%
viability, T/C [8]: 82.4%
viability, T/C [25]: 76.3%
viability, T/C [26]: 78%
viability, T/C [27]: 87.6%
viability, T/C [28]: 69.6%
viability, T/C [9]: 68.8%
viability, T/C [10]: 82.8%
viability, T/C [29]: 80.4%
viability, T/C [30]: 101%
viability, T/C [31]: 77.3%
viability, T/C [32]: 66.4%
viability, T/C [11]: 79%
viability, T/C [12]: 80.4%
viability, T/C [33]: 81.7%
viability, T/C [34]: 79.8%
viability, T/C [35]: 75.8%
viability, T/C [36]: 68.3%

O=c1[nH]cc(F)c(=O)[nH]1 + Nc1ccc(C#CCN(C(=O)Cc2ncc(C(F)(F)F)cc2C(F)(F)F)c2ccc(F)cc2)nn1
IC50 (second compound 0.0316 µM): > 10 µM
IC50 (second compound 0.1 µM): > 10 µM
IC50 (second compound 0.316 µM): > 10 µM
IC50 (second compound 1 µM): > 10 µM
IC50 (second compound 3.16 µM): > 10 µM
IC50 (second compound 10 µM): > 10 µM
viability, T/C [1]: 101%
viability, T/C [2]: 94.7%
viability, T/C [13]: 92.9%
viability, T/C [14]: 92.9%
viability, T/C [15]: 95.4%
viability, T/C [16]: 85.5%
viability, T/C [3]: 103%
viability, T/C [4]: 110%
viability, T/C [17]: 103%
viability, T/C [18]: 89%
viability, T/C [19]: 82.4%
viability, T/C [20]: 93.4%
viability, T/C [5]: 92.4%
viability, T/C [6]: 109%
viability, T/C [21]: 101%
viability, T/C [22]: 101%
viability, T/C [23]: 111%
viability, T/C [24]: 92.6%
viability, T/C [7]: 110%
viability, T/C [8]: 107%
viability, T/C [25]: 108%
viability, T/C [26]: 89.5%
viability, T/C [27]: 94.3%
viability, T/C [28]: 90.6%
viability, T/C [9]: 107%
viability, T/C [10]: 87.3%
viability, T/C [29]: 82.8%
viability, T/C [30]: 82.3%
viability, T/C [31]: 80%
viability, T/C [32]: 82.4%
viability, T/C [11]: 81.9%
viability, T/C [12]: 86.2%
viability, T/C [33]: 84.6%
viability, T/C [34]: 81.9%
viability, T/C [35]: 88%
viability, T/C [36]: 76.7%
